From patent publication US7960376B2, “Benzo-fused heterocycles” (priority 2007, dated 2011)

Tests used:
[1] = target: human CB2 receptor (hCB2) (Homo sapiens, UniProt P34972); experiment: cell-based; format: cell-based; details: intracellular cAMP, CHO-K1 cells, NKH-477 prestimulated, + agonist, − inverse agonist
rat CB2 receptor (rCB2) = target: T1, rat CB2 receptor (rCB2) (Rattus norvegicus, UniProt Q9QZN9); experiment: cell-based; format: cell-based; details: intracellular cAMP, CHO-K1 cells, NKH-477 prestimulated, + agonist, − inverse agonist
T1 sequence (Q9QZN9 1-360): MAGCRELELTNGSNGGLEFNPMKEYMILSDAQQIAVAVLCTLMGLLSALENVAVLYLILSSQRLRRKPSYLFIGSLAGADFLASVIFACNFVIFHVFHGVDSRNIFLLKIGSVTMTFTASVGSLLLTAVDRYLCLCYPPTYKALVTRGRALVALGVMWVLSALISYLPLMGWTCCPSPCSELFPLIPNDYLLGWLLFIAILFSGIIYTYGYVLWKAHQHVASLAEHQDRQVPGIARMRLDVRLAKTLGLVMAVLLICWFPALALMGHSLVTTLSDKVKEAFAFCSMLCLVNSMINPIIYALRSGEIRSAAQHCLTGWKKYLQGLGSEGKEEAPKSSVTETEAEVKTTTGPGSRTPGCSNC

[2] = target: human CB1 receptor (hCB1) (Homo sapiens, UniProt P21554); experiment: cAMP assay (LANCE TR-FRET) in CHO-K1 cells expressing hCB1; format: cell-based; details: intracellular cAMP, NKH-477 prestimulated, + agonist, − inverse agonist
[3] = system: CFA-induced mechanical hyperalgesia; experiment: Anti-hyperalgesia in the Complete Freund's Adjuvant (CFA) model of inflammatory pain, Randall-Selitto paw pressure; format: in vivo, Male Sprague-Dawley rats; details: rat, injured paw, Pre-CFA 175 ± 4 g, Post-CFA 100 ± 3 g, cut-off 260 g, mean ± SEM, p < 0.05 vs Post-CFA

Chain of human CB2 receptor (hCB2) (P34972 whole entry): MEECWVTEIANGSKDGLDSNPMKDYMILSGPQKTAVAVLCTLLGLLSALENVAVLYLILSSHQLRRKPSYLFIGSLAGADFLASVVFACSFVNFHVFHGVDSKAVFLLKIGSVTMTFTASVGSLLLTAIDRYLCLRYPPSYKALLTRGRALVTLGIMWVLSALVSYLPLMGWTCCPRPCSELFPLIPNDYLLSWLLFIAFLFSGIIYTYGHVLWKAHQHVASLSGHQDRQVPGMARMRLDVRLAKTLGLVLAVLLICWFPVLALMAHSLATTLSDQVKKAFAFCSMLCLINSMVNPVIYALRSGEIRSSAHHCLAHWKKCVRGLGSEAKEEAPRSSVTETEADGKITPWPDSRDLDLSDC
Chain of human CB1 receptor (hCB1) (P21554 whole entry): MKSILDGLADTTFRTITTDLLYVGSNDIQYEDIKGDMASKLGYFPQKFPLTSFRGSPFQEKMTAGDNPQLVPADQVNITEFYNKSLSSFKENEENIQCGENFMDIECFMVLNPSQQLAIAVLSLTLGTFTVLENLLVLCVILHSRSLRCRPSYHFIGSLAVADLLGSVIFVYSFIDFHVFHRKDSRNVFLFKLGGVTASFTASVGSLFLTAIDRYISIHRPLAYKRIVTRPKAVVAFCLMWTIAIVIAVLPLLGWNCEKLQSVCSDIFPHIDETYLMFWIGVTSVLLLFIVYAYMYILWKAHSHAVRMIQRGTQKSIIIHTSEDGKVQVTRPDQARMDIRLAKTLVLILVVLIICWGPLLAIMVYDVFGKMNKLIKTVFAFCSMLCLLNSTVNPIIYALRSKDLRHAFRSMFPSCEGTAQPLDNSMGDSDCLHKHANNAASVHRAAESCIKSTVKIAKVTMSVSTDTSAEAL

| SMILES | hCB2 EC50 range [1] | rCB2 EC50 range (rat CB2 receptor (rCB2)) | hCB1 EC50 range [2] | Test Threshold ([3]; 1 mg/paw intrapaw) | EC50 ([1]; read-out: hCB2 EC50 range) | EC50 (rat CB2 receptor (rCB2); read-out: rCB2 EC50 range) | EC50 ([2]; read-out: hCB1 EC50 range) | Test Threshold ([3]; 0.1 mg/paw intrapaw) |
| --- | --- | --- | --- | --- | --- | --- | --- | --- |
| O=C(NC1CCCC1)c1ccc2c(c1)N(S(=O)(=O)c1ccc(F)cc1)CCS2 [Example 45, N-cyclopentyl-4-(4-fluorophenylsulfonyl)-3,4-dihydro-2H-benzo[b][1,4]thiazine-6-carboxamide] | +B | +A | +D | 179 ± 19 g |  |  |  |  |
| O=S(=O)(c1ccccc1)N1CCSc2ccc(-c3nc(-c4ccccn4)no3)cc21 [Example 87, 5-(4-(phenylsulfonyl)-3,4-dihydro-2H-benzo[b][1,4]thiazin-6-yl)-3-(pyridin-2-yl)-1,2,4-oxadiazole] |  |  |  |  | > 10 µM | > 10 µM | > 10 µM |  |
| CCc1noc(-c2ccc3c(c2)N(S(=O)(=O)c2ccc(C(F)(F)F)cc2)CCS3)n1 [Example 89, 3-ethyl-5-(4-(4-(trifluoromethyl)phenylsulfonyl)-3,4-dihydro-2H-benzo[b][1,4]thiazin-6-yl)-1,2,4-oxadiazole] | +B | +A | +D |  |  |  |  |  |
| CCc1noc(-c2ccc3c(c2)N(S(=O)(=O)c2ccc(F)cc2)CCS3)n1 [Example 90, 3-ethyl-5-(4-(4-fluorophenylsulfonyl)-3,4-dihydro-2H-benzo[b][1,4]thiazin-6-yl)-1,2,4-oxadiazole] | +B | +A | +D |  |  |  |  |  |
| CC(C)(C)NC(=O)c1ccc2c(c1)N(S(=O)(=O)c1ccccc1)CCC(C)(C)S2 [Example 91, N-tert-butyl-2,2-dimethyl-5-(phenylsulfonyl)-2,3,4,5-tetrahydrobenzo[b][1,4]thiazepine-7-carboxamide] | +D | +B | −E |  |  |  |  |  |
| C[C@H](NC(=O)c1ccc2c(c1)N(S(=O)(=O)c1ccccc1)CCC(C)(C)S2)C(C)(C)C [Example 98, (S)-N-(3,3-dimethyl-butan-2-yl)-2,2-dimethyl-5-(phenyl-sulfonyl)-2,3,4,5-tetrahydrobenzo[b][1,4] thiazepine-7-carboxamide] | +D | −E | −D |  |  |  |  |  |
| CC1(C)CCN(S(=O)(=O)c2ccc(F)cc2)c2cc(C(=O)N3CCOCC3)ccc2S1 [Example 100, (5-(4-fluorophenyl-sulfonyl)-2,2-dimethyl-2,3,4,5-tetrahydro-benzo[b][1,4]thiazepin-7-yl) (morpholino)-methanone] | +E | +C | −E |  |  |  |  |  |
| CC1(C)CCN(S(=O)(=O)c2ccc(F)cc2)c2cc(C(=O)NC3CCCC3)ccc2S1 [Example 101, N-cyclopentyl-5-(4-fluorophenylsulfonyl)-2,2-dimethyl-2,3,4,5-tetrahydrobenzo[b][1,4] thiazepine-7-carboxamide] | +E | −C | −E |  |  |  |  |  |
| CNC(=O)[C@@H](NC(=O)c1ccc2c(c1)N(S(=O)(=O)c1ccc(F)cc1)CCC(C)(C)S2)C(C)(C)C [Example 103, (S)-N-(3,3-dimethyl-1-(methylamino)-1-oxobutan-2-yl)-5-(4-fluorophenyl-sulfonyl)-2,2-dimethyl-2,3,4,5-tetrahydrobenz0-[b][1,4]thiazepine-7-carboxamide] | +D | +C | −E |  |  |  |  |  |
| O=S(=O)(c1ccc(F)cc1)N1CCSc2ccc(-c3nnc(-c4ccccc4)o3)cc21 [Example 104, 2-(4-(4-fluorophenylsulfonyl)-3,4-dihydro-2H-benzo[b][1,4]thiazin-6-yl)-5-phenyl-1,3,4-oxadiazole] | +C | +B | +D |  |  |  |  |  |
| O=S(=O)(c1ccc(C(F)(F)F)cc1)N1CCSc2ccc(-c3nnc(-c4ccccc4)o3)cc21 [Example 105, 2-phenyl-5-(4-(4-(trifluoromethyl)phenylsulfonyl)-3,4-dihydro-2H-benzo[b][1,4]thiazin-6-yl)-1,3,4-oxadiazole] | +C | +A | +D |  |  |  |  |  |
| O=S(=O)(c1ccc(F)cc1)N1CCSc2ccc(-c3ncc(-c4ccccc4)[nH]3)cc21 [Example 108, 4-(4-fluorophenylsulfonyl)-6-(5-phenyl-1H-imidazol-2-yl)-3,4-dihydro-2H-benzo[b][1,4]thiazine] | +C | +B | +E |  |  |  |  |  |
| O=S(=O)(c1ccc(C(F)(F)F)cc1)N1CCSc2ccc(-c3nc4ccccc4o3)cc21 [Example 109, 2-(4-(4-(trifluoromethyl)phenylsulfonyl)-3,4-dihydro-2H-benzo[b][1,4]thiazin-6-yl)benzo[d]oxazole] | +C | +B | +D |  |  |  |  |  |
| Cc1c(C(=O)c2cccc3ccccc23)c2cccc3c2n1[C@H](CN1CCOCC1)CO3 [WIN 55212, 2, reference compound] |  |  |  |  |  |  |  | 255 ± 5 g |
